Reference: patent US10183014B2, “Ocular formulations for drug-delivery and protection of the anterior segment of the eye” (PanOptica, Inc., priority 2014, dated 2019)
Several values for one entry are separate records, joined by “and”; a condition that tells them apart may be missing. Equal entries are not always repeated. Where two headings read alike, the source gives them in different places.

How the values were obtained:
HUVECs = test: Inhibition of VEGF-stimulated mitogenesis in HUVECs; assay type: cell-based; conditions: Homo sapiens, HUVEC
PTK6 (Brk) = PTK6 (Brk) (Homo sapiens, UniProt Q13882); test: In vitro inhibition of tyrosine kinases; assay type: biochemical; conditions: read-out: Mean % Inhibition at 1 μM Compound-I; 1 μM (568.9 ng/mL)
EPHA-1 = EPHA-1 (Homo sapiens, UniProt P21709); test: In vitro inhibition of tyrosine kinases; assay type: biochemical; conditions: read-out: Mean % Inhibition at 1 μM Compound-I; 1 μM (568.9 ng/mL)
[1] = Particle size distribution by laser diffraction light scattering; assay type: physicochemical; conditions: API form HCl salt
Method: Particle size distribution can be analyzed using laser diffraction light scattering, e.g., with a Horiba LA-950 V2. Generic assumptions are made in setting conditions and the refractive index value. The distributions are volume based. Sample density is adjusted to a generic range of percent transmission on the blue LED light source. A small sample cell (filled with water) can be used rather than the flow through cell, to minimize sample quantity.
Particle size distribution was analyzed using laser diffraction light scattering with a Horiba LA-950 V2. Generic assumptions were made in setting conditions and the refractive index value. The distributions were volume based. Sample density was adjusted to a generic range of percent transmission on the blue LED light source. A small sample cell (filled with water) was used rather than the flow through cell, to minimize sample quantity.

MAP4K4 (HGK) = MAP4K4 (HGK) (Homo sapiens, UniProt O95819); test: In vitro inhibition of tyrosine kinases; assay type: biochemical; conditions: read-out: Mean % Inhibition at 1 μM Compound-I; 1 μM (568.9 ng/mL)
LYN A = LYN A (Homo sapiens, UniProt P07948); test: In vitro inhibition of tyrosine kinases; assay type: biochemical; conditions: read-out: Mean % Inhibition at 1 μM Compound-I; 1 μM (568.9 ng/mL)
ABL1 Y253F = ABL1 Y253F (Homo sapiens, UniProt P00519, Y253F); test: In vitro inhibition of tyrosine kinases; assay type: biochemical; conditions: read-out: Mean % Inhibition at 1 μM Compound-I; 1 μM (568.9 ng/mL)
SNF1LK2 = SNF1LK2 (Homo sapiens, UniProt Q9H0K1); test: In vitro inhibition of tyrosine kinases; assay type: biochemical; conditions: read-out: Mean % Inhibition at 1 μM Compound-I; 1 μM (568.9 ng/mL)
SRC N1 = SRC N1 (Homo sapiens, UniProt P12931); test: In vitro inhibition of tyrosine kinases; assay type: biochemical; conditions: read-out: Mean % Inhibition at 1 μM Compound-I; 1 μM (568.9 ng/mL)
[2] = Ocular pharmacokinetics of formulations, Example 20-4; assay type: in vivo, Dutch Belted rabbits; conditions: Dutch Belted, rabbit, topical, Day 5, 1 hr post dose
Method: The study design (Table 18-1) consisted of forty-nine (49) Dutch Belted rabbits, each receiving a 30 μL bilateral topical ocular dose.
Ocular sampling occurred one hour following the first daily dose on Day 5 for all groups. Whole blood samples using K2EDTA as an anticoagulant were collected from all animals on Day 5, 1 hour post dose. The whole blood was placed on ice until samples were spun in a centrifuge to separate the plasma. Aqueous humor, conjunctiva, cornea, central retina, peripheral retina, central choroid, and peripheral choroid samples were collected following necropsy. Samples were then frozen at −70° C. or lower. For all Groups 1-16, plasma, central retina, central choroid, and cornea samples were assayed for PAN-90806.

[3] = excipient HPMC, roller speed low, media size 3 mm, particles under storage 21 days, RT
[4] = excipient Pluronic F-127, roller speed high, media size 0.8 mm
[5] = excipient Tyloxapol, milling not given
[6] = excipient Tyloxapol, roller speed high, media size 0.8 mm, particles under storage 6 days, 40° C.
[7] = excipient Tyloxapol, roller speed low, media size 3 mm

LYN A, sequence (P07948 whole entry, species assumed): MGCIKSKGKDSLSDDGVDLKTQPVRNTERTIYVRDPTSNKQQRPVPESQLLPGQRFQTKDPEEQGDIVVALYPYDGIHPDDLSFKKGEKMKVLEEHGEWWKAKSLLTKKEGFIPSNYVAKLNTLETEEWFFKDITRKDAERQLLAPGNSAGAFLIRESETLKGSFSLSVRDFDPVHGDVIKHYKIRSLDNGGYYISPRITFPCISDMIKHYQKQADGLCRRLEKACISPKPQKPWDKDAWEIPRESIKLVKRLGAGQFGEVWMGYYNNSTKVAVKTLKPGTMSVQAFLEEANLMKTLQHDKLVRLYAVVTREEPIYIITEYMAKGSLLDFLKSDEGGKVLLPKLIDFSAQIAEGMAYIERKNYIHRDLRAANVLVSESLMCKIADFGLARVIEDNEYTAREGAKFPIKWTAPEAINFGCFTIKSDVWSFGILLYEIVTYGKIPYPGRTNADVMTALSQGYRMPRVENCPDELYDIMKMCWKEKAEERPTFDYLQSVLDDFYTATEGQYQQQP
SRC N1, sequence (P12931 1-542 isoform P12931-2): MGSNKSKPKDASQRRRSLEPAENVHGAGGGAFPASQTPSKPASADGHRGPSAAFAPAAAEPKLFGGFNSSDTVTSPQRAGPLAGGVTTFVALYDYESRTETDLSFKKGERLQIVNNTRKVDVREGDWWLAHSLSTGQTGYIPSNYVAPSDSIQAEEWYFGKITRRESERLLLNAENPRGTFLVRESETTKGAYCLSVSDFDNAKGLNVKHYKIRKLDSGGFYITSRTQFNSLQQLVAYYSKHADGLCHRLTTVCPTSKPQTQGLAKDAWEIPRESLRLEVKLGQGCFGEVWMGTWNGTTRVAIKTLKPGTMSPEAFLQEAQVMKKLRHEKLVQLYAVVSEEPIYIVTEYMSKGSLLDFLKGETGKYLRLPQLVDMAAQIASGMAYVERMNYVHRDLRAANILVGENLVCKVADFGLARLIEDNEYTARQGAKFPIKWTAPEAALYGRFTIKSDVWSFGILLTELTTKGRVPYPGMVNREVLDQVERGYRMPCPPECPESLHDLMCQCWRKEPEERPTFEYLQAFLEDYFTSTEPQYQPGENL
MAP4K4 (HGK), sequence (O95819 whole entry, species assumed): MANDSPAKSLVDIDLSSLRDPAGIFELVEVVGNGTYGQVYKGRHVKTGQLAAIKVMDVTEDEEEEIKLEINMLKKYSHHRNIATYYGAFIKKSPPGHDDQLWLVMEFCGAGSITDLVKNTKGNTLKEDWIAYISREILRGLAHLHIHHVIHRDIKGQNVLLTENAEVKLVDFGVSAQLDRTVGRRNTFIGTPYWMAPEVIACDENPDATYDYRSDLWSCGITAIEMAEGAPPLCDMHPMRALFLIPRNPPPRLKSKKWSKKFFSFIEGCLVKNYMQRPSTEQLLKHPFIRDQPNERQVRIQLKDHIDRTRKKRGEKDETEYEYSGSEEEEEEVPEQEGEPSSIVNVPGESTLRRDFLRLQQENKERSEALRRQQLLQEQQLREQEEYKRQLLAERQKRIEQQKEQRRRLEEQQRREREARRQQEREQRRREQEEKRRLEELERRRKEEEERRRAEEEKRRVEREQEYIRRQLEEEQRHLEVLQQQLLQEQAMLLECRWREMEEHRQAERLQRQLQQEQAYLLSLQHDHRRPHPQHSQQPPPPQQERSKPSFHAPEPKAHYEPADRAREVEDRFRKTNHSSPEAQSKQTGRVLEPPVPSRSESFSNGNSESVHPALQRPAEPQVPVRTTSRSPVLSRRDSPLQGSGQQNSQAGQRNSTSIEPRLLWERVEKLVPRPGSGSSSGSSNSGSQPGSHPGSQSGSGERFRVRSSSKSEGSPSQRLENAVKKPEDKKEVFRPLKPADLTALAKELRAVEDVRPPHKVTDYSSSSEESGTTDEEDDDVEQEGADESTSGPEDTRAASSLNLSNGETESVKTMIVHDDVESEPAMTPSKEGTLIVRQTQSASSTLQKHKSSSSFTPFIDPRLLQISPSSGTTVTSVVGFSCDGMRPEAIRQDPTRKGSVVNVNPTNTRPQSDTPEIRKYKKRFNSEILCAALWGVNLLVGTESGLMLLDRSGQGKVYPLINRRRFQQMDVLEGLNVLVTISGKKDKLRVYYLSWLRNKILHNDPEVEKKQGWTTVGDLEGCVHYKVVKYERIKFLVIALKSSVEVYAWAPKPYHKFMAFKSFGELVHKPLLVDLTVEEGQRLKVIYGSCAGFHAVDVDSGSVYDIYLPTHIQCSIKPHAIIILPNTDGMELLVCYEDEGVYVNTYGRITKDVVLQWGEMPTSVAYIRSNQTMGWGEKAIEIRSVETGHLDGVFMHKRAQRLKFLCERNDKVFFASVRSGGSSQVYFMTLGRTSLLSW
SNF1LK2, sequence (Q9H0K1 whole entry, species assumed): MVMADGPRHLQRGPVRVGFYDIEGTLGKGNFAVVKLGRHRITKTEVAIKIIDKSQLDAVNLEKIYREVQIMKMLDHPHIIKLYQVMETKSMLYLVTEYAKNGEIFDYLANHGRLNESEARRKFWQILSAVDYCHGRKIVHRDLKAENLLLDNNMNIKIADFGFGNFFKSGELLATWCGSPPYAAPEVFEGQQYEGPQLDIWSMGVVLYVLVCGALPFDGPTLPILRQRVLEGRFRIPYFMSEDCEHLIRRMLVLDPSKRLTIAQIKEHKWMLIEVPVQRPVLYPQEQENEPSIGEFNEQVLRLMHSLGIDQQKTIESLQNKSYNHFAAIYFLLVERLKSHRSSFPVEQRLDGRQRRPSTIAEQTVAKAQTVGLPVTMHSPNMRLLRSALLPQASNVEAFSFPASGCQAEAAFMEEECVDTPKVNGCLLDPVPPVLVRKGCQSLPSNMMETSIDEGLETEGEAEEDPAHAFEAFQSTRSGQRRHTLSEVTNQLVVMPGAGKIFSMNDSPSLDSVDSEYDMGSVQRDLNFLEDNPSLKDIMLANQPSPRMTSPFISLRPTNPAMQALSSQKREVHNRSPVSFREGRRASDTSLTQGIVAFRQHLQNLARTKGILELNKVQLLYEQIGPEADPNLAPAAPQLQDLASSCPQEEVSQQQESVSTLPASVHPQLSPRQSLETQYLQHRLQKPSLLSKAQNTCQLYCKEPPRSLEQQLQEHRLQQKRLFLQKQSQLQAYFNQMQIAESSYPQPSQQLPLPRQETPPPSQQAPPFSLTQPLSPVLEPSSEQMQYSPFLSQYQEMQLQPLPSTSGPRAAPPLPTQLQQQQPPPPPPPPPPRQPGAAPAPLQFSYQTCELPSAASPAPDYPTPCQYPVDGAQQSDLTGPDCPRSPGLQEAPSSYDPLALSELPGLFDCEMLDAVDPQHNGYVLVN
EPHA-1, sequence (P21709 26-976, species assumed): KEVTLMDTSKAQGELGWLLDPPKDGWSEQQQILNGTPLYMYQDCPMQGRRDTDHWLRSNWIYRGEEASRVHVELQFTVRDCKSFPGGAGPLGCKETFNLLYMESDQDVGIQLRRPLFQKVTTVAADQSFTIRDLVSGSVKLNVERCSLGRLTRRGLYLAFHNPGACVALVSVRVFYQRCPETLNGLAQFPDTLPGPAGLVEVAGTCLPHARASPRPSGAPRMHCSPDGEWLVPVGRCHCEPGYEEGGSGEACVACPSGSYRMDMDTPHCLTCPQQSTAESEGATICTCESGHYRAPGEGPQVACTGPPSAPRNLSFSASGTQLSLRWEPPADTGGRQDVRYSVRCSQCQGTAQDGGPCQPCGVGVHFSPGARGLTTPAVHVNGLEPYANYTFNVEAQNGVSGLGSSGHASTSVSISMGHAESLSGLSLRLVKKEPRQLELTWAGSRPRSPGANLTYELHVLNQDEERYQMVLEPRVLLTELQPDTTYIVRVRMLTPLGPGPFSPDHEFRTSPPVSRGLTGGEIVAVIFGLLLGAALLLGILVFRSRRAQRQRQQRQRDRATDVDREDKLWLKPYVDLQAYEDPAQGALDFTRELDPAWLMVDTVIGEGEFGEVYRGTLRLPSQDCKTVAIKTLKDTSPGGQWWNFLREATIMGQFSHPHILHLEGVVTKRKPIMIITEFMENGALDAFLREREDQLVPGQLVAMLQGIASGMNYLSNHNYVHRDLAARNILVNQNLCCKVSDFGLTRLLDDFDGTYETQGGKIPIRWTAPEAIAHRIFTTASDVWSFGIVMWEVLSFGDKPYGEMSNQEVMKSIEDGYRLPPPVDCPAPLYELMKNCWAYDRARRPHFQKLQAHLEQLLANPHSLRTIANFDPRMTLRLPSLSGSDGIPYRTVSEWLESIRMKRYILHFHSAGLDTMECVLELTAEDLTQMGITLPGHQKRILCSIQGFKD
PTK6 (Brk), sequence (Q13882 whole entry, species assumed): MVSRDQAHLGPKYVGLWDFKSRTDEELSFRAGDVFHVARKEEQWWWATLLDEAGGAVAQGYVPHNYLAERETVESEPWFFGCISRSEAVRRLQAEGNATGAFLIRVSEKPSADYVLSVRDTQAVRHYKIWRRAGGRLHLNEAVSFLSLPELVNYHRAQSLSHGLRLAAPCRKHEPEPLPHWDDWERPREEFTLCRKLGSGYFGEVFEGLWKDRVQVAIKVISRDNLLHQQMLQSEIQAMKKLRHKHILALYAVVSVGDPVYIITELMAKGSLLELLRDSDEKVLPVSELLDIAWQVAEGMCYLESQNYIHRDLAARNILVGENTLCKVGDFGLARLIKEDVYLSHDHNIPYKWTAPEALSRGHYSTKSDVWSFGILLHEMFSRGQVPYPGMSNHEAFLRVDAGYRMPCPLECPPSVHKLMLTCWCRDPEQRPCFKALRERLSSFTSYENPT

For `Cl.NC(=O)c1c(OCc2c(F)cc(Br)cc2F)nsc1NC(=O)NCCCCN1CCCC1` [Compound-I, 3-[(4-bromo-2,6-difluorophenyl)methoxy]-5-[[[[4-(1-pyrrolidinyl)butyl]amino]carbonyl]amino]-4-isothiazolecarboxamide hydrochloride], the IC50 (HUVECs) was 14.1 nM and 0.008 µg/mL, the inhibition at 1 µM (PTK6 (Brk)) was 88% and the inhibition at 1 µM (EPHA-1) was 81%. For the same compound, the “PSD (Particle Size Distribution) Mean” value [1, 3] was ~450 nm, the “PSD (Particle Size Distribution) Median” value [1, 3] was ~170 nm and the “PSD (Particle Size Distribution) Mean” value [1, 4] was ~100 nm. For the same compound, the “PSD (Particle Size Distribution) Median” value [1, 4] was ~100 nm, the “PSD (Particle Size Distribution) Mean” value [1, 5] was ~110 nm and the “PSD (Particle Size Distribution) Median” value [1, 5] was ~110 nm. For the same compound, the “PSD (Particle Size Distribution) Mean” value [1, 6] was ~120 nm, the “PSD (Particle Size Distribution) Median” value [1, 6] was ~110 nm and the “PSD (Particle Size Distribution) Mean” value [1, 7] was ~8500 nm. For the same compound, the “PSD (Particle Size Distribution) Median” value [1, 7] was ~6700 nm, the inhibition at 1 µM (MAP4K4 (HGK)) was 100% and the inhibition at 1 µM (LYN A) was 81%. It also gave an inhibition at 1 µM (ABL1 Y253F) of 93%, an inhibition at 1 µM (SNF1LK2) of 82% and an inhibition at 1 µM (SRC N1) of 83%. It also gave a concentration at 1 h ([2]; central choroid, 4 mg/mL (30 μL per eye, bilateral), pH 6, Group 3: 4 mg/mL Salt, eye drops solution (control), pH 6, QD, read-out: Central Choroid concentration) of 181 nM, a concentration at 1 h ([2]; central choroid, 4 mg/mL (30 μL per eye, bilateral), Group 16: 4 mg/mL Salt suspension, PSD 30 μm/XL, TRIS 0.60%, glycerol 2%, HEC 0.2%, HPMC 0.08%, VitK3 1 μM, pH 7, QD, read-out: Central Choroid concentration) of 208 nM and a concentration at 1 h ([2]; central choroid, 30 μL per eye of 4 mg/mL suspension, Group 7: 4 mg/mL Salt suspension, PSD 30 μm/XL, TRIS 0.60%, glycerol 2%, HEC 0.3%, Tylox 0.04%, VitK3 1 μM, pH 6, QD, read-out: Central Choroid concentration) of 142 nM. It also gave a concentration at 1 h ([2]; central choroid, 30 μL per eye of 4 mg/mL suspension, Group 9: 4 mg/mL Salt suspension, PSD 30 μm/XL, TRIS 0.60%, glycerol 2%, HEC 0.3%, Tylox 0.04%, VitK3 1 μM, pH 7, QD, read-out: Central Choroid concentration) of 224 nM, a concentration at 1 h ([2]; central choroid, 30 μL per eye of 6 mg/mL suspension, Group 6: 6 mg/mL Salt suspension, PSD 30 μm/XL, TRIS 0.60%, glycerol 2%, HEC 0.2%, HPMC 0.08%, VitK3 1 μM, pH 6, QD, read-out: Central Choroid concentration) of 243 nM and a concentration at 1 h ([2]; central retina, 0.3 mg/mL (30 μL per eye, bilateral), pH 6, Group 1: 0.3 mg/mL Salt, pH 6, BID, read-out: Central Retina concentration) of 16.3 nM. It also gave a concentration at 1 h ([2]; central retina, 1 mg/mL (30 μL per eye, bilateral), pH 6, Group 2: 1 mg/mL Salt, eye drops solution (control), pH 6, QD, read-out: Central Retina concentration) of 34.7 nM, a concentration at 1 h ([2]; central retina, 4 mg/mL (30 μL per eye, bilateral), pH 6, Group 3: 4 mg/mL Salt, eye drops solution (control), pH 6, QD, read-out: Central Retina concentration) of 83.7 nM and a concentration at 1 h ([2]; central retina, 4 mg/mL (30 μL per eye, bilateral), Group 16: 4 mg/mL Salt suspension, PSD 30 μm/XL, TRIS 0.60%, glycerol 2%, HEC 0.2%, HPMC 0.08%, VitK3 1 μM, pH 7, QD, read-out: Central Retina concentration) of 74.4 nM. For the same compound, the concentration at 1 h ([2]; central retina, 30 μL per eye of 6 mg/mL suspension, Group 6: 6 mg/mL Salt suspension, PSD 30 μm/XL, TRIS 0.60%, glycerol 2%, HEC 0.2%, HPMC 0.08%, VitK3 1 μM, pH 6, QD, read-out: Central Retina concentration) was 136 nM, the concentration at 1 h ([2]; cornea, 0.3 mg/mL (30 μL per eye, bilateral), pH 6, Group 1: 0.3 mg/mL Salt, pH 6, BID, read-out: Cornea concentration) was 3330 nM and the concentration at 1 h ([2]; cornea, 1 mg/mL (30 μL per eye, bilateral), pH 6, Group 2: 1 mg/mL Salt, eye drops solution (control), pH 6, QD, read-out: Cornea concentration) was 7060 nM. It also gave a concentration at 1 h ([2]; cornea, 4 mg/mL (30 μL per eye, bilateral), pH 6, Group 3: 4 mg/mL Salt, eye drops solution (control), pH 6, QD, read-out: Cornea concentration) of 15900 nM, a concentration at 1 h ([2]; cornea, 4 mg/mL (30 μL per eye, bilateral), Group 16: 4 mg/mL Salt suspension, PSD 30 μm/XL, TRIS 0.60%, glycerol 2%, HEC 0.2%, HPMC 0.08%, VitK3 1 μM, pH 7, QD, read-out: Cornea concentration) of 14700 nM and a concentration at 1 h ([2]; cornea, 30 μL per eye of 6 mg/mL suspension, QD, pH 6, Group 6: 6 mg/mL Salt suspension, PSD 30 μm/XL, TRIS 0.60%, glycerol 2%, HEC 0.2%, HPMC 0.08%, VitK3 1 μM, pH 6, QD, read-out: Cornea concentration) of 14400 nM.
